Experimental data as given in a melting point compilation (Tetko et al.).

melting point [°C] | Structure (SMILES)
129 to 131 | NCc1cccnc1N1CCC(C(N)=O)CC1
168 to 170 | O=C1OCCN1c1ccc(S(=O)(=O)Cl)cc1
113 to 115 | CC(C)CC(=O)NCCc1ccc(S(N)(=O)=O)s1
77 to 79 | Brc1ncn2ccccc12
193 to 195 | Sc1nnnn1CCc1ccccn1
101 to 103 | COC(=O)c1cc(O)ccc1[N+](=O)[O-]
236 to 238 | N#CCS(=O)(=O)c1ccc(C(=O)O)cc1
113 to 115 | CCC(C)(CNC(=O)OC(C)(C)C)C(=O)O (configuration not stated)
198 to 200 | Nc1nnc(C2Cc3ccccc3O2)o1 (configuration not stated)
259 to 261 | Cc1cc(=O)[nH]c2c1cnn2C1CCCC1
238 to 240 | O=C(O)c1ccc(-n2ccnc2)nn1
158 to 160 | CC(C)NC(=O)N(C)c1ccc(O)cc1
95 to 97 | CN(c1ccccc1)c1ccc(C=O)cc1[N+](=O)[O-]
181 to 183 | CCOC(=O)c1nc(-c2ccccc2)oc1N
239 to 241 | O=C(O)c1cccc(-c2nnco2)c1
107 to 109 | Cc1cc(N2CCCC2=O)ccc1Br
107 to 109 | CC(C)(C)C1CCc2[nH]c3ccc(Cl)cc3c2C1 (configuration not stated)
82 to 84 | Nc1cnn(-c2cccc(C(F)(F)F)c2)c1
117 to 119 | O=C(O)CCCS(=O)(=O)c1ccc(Br)cc1
142 to 144 | COc1ccc(-c2ccc(CCC(=O)O)o2)cc1
150 to 152 | CN(CC(=O)O)C1CCCC1O (configuration not stated)
119 to 121 | Nc1nc(-c2ccccc2Cl)ns1
86 to 88 | N#Cc1cccc(Oc2ccc(Cl)cc2)n1
170 to 180 | CC(=O)c1c(C)[nH]c(C(=O)CCl)c1C
169 to 171 | CC1CNc2cc(F)ccc2C(=O)N1 (configuration not stated)

melting point [°C] | Structure (SMILES)
179 to 181 | O=C(O)c1ccc(Sc2ccccn2)cc1
150 to 152 | NC(=O)CCN1C(=O)NC2(CCCC2)C1=O
218 to 222 | Cc1ccc(-c2nc(N)sc2CC(=O)O)cc1
135 to 137 | Cc1nn(Cc2ccccc2)c(C)c1C=NO
131 to 133 | O=C(O)C1CCN(S(=O)(=O)N2CCCCC2)CC1
188 to 190 | N#Cc1cn(-c2ccccc2[N+](=O)[O-])nc1N
148 to 150 | Cc1ccc(S(=O)(=O)NCCC(=O)O)cc1
169 to 171 | COc1ccccc1C(N)C(=O)O (configuration not stated)
243 to 245 | CCn1c2ccccc2c2cc(/C=C/C(=O)O)ccc21
74 to 76 | CC(C)c1cc(C(=O)O)on1
168 to 170 | Nc1cccc(-c2n[nH]c3c2CCC3)c1
135 to 137 | Cc1cc(N)n(C(=O)OC(C)(C)C)n1
288 to 290 | Oc1nc(S)nc2c1CCC2
44 to 46 | COCCNC(C)(C)CO
168 to 170 | Nc1cccc(CN2CCN(c3ccccn3)CC2)c1
209 to 211 | COCCNc1c(N)n(Cc2ccccc2)c(=O)[nH]c1=O
304 to 306 | Cn1c(S)nc2sc3c(c2c1=O)CCCC3
64 to 66 | CCCCCNCC(N)=O
149 to 151 | O=C(O)c1cc(S(=O)(=O)Cl)cc(F)c1Cl
116 to 118 | CCCc1ccc(N)c(C(=O)O)c1
262 to 264 | CC(=O)N1CCN(c2ccc(C(=O)O)cc2[N+](=O)[O-])CC1
76 to 78 | Cc1ccc(C(C)(C)C(=O)O)cc1
199 to 201 | O=C(O)c1ccc(Cn2ccccc2=O)o1
143 to 145 | CS(=O)(=O)c1cc(C#N)ccn1
122 to 124 | N#CCc1ccc(NC(=O)CCl)cc1

melting point [°C] | Structure (SMILES)
112 to 114 | NNC(=O)C1CCCC1
116 to 118 | O=C(O)c1ccccc1Nc1ccc(SC(F)F)cc1
168 to 170 | Nc1ccc(S(=O)(=O)Nc2cccc(F)c2)cc1
51 to 53 | CCOC(=O)C(=O)CC(=O)c1ccc(OC)cc1
236 to 238 | O=C(O)c1c(O)cc(=O)n2c1CCC2
153 to 155 | COc1ccccc1N(C)S(=O)(=O)c1ccc(C)c(C(=O)O)c1
176 to 178 | Cc1ccc(-n2nnc(C(=O)O)c2C(C)C)cc1
109 to 111 | O=C(O)c1ccnc(OC2CCOC2)c1 (configuration not stated)
167 to 169 | Cc1cc(=O)c(C(=O)O)nn1-c1ccccc1
43 to 45 | Cc1cc([N+](=O)[O-])c(Cl)cc1F
110 to 112 | O=C(O)CCCNc1nc2ccccc2s1
125 to 127 | Cc1cc(C)cc(-n2[nH]c(-c3ccco3)cc2=N)c1
79 to 81 | CCOC(=O)c1ccn(-c2ccccc2N)n1
86 to 90 | Nc1ncc(C(F)(F)F)cc1Cl
85 to 87 | N#Cc1ccccc1CS(=O)(=O)Cl
256 to 258 | N#Cc1c[nH]c(C(=O)O)c1
219 to 221 | Nc1ccccc1N1C(=O)c2ccc(Br)cc2C1=O
30 to 32 | O=C(CC1CCCC1)c1ccc(Oc2ccccc2)cc1
170 to 172 | O=C(O)c1ccc(S(=O)(=O)N2CCCc3ccccc32)cc1
247 to 249 | O=C(O)c1ccc(N2CCCS2(=O)=O)cc1
211 to 213 | Nc1ccc2c(c1)C(=O)N(c1ccc(F)cc1)C2=O
166 to 168 | CNC(=O)c1ccc([N+](=O)[O-])cc1Cl
149 to 151 | O=C(O)c1ccc(F)c(COc2ccc(F)cc2)c1
87 to 89 | O=C(O)c1ccccc1OCc1cccs1
61 to 63 | Cc1nn(-c2ccccc2)c(C)c1N

melting point [°C] | Structure (SMILES)
82 to 84 | COc1ccc2c(c1)OCC(C=O)=C2
183 to 185 | Cc1nnc(N)o1
175 to 177 | Cc1cc(NN)nc(-c2ccccn2)n1
164 to 166 | CCOC(=O)c1nc(-c2cccs2)oc1N
93 to 95 | CC(C)Oc1ccc(S(=O)(=O)Cl)c2ccccc12
119 to 121 | CN(C)S(=O)(=O)c1cn(C)cn1
271 to 273 | Cc1nc(O)nc(C)c1CC(=O)O
151 to 153 | O=C(O)COc1cc(F)ccc1F
62 to 64 | NNS(=O)(=O)CCc1ccccc1
249 to 251 | O=c1[nH]cnc2ncccc12
132 to 134 | CC(=O)Nc1ccc(C)cc1N
143 to 145 | NCc1cccc(NC(N)=O)c1
101 to 104 | CC(=O)C(Cl)C(=O)Nc1ccccc1 (configuration not stated)
93 to 95 | O=C1CCSc2cc(F)c(F)cc21
69 to 71 | CN(C)c1cc(C#N)ccn1
199 to 201 | Nc1cc(S(=O)(=O)N2CCOCC2)ccc1O
210 to 212 | O=C1CCc2cc(Br)c(F)cc2N1
127 to 129 | Nc1ncc(Cc2ccc(Cl)cc2)s1
91 to 93 | O=C(O)CCCNc1ccc(C(F)(F)F)cn1
156 to 158 | COc1ccccc1NS(=O)(=O)c1cccc(C(=O)O)c1
44 to 46 | O=S(=O)(Cl)c1ccc2c(c1)CCCC2
238 to 240 | CC(C)CNS(=O)(=O)c1ccc(C(=O)O)cc1

Structure (SMILES) | melting point [°C]
OCc1ccc(CCl)cc1 | 55 to 57
CC(=O)c1ccc(N2CCNCC2)c(F)c1 | 104 to 106
N#Cc1ccc(N2C(=O)NC(CCC(=O)O)C2=O)cc1 (configuration not stated) | 220 to 222
O=C1NCCCN2CCCC12 (configuration not stated) | 120 to 122
CCNCC(O)c1ccc(C)cc1 (configuration not stated) | 88 to 90
